# Laboratory results reported in ChEMBL document CHEMBL3885881, “DrugMatrix”.
# Species: Rattus norvegicus
# Test: DrugMatrix - Regimen: Daily Repeat
# Assay type: toxicity, organism-based, Sprague-Dawley
# Set-up: regimen Daily Repeat, gender Male, age 6-8 weeks
# Details: in vivo, po, route oral GAVAGE, vehicle 100 % WATER; for ABSOLUTE BASOPHIL / ABSOLUTE EOSINOPHIL / ABSOLUTE LYMPHOCYTE / ABSOLUTE MONOCYTE / ABSOLUTE SEGMENTED NEUTROPHIL / BASOPHIL / EOSINOPHIL / ERYTHROCYTE COUNT / HEMATOCRIT / HEMOGLOBIN / LEUKOCYTE COUNT / LYMPHOCYTE / MEAN CORPUSCULAR HEMOGLOBIN / MEAN CORPUSCULAR HEMOGLOBIN CONCENTRATION / MEAN CORPUSCULAR VOLUME / MONOCYTE / NEUTROPHIL / NUCLEATED RED BLOOD CELLS / PLATELET COUNT: tissue Blood; for ALANINE AMINOTRANSFERASE / ALBUMIN / ALKALINE PHOSPHATASE / ASPARTATE AMINOTRANSFERASE / BLOOD UREA NITROGEN / CARBON DIOXIDE / CHLORIDE / CHOLESTEROL / CREATINE PHOSPHOKINASE / CREATININE / GLUCOSE / LACTATE DEHYDROGENASE / LIPASE / PHOSPHORUS / POTASSIUM / SODIUM / TOTAL BILIRUBIN / TOTAL PROTEIN / URIC ACID: tissue Plasma
# [1] = 5 mg/kg, 120 h, dose level Low, time 5 day
# [2] = 500 mg/kg, 72 h, dose level High, time 3 day
# [3] = 500 mg/kg, 120 h, dose level High, time 5 day
smiles,measurement,setting,value
COc1cc2nc(N3CCN(C(=O)C4COc5ccccc5O4)CC3)nc(N)c2cc1OC (centres undefined) [DOXAZOSIN],ABSOLUTE BASOPHIL,[1],0 CELLS/uL
same,ABSOLUTE EOSINOPHIL,[1],0 CELLS/uL
same,ABSOLUTE LYMPHOCYTE,[1],9952.67 CELLS/uL
same,ABSOLUTE MONOCYTE,[1],136 CELLS/uL
same,ABSOLUTE SEGMENTED NEUTROPHIL,[1],844.67 CELLS/uL
same,BASOPHIL,[1],0%
same,EOSINOPHIL,[1],0%
same,ERYTHROCYTE COUNT,[1],5.87 x10E6/uL
same,HEMATOCRIT,[1],36.6%
same,HEMOGLOBIN,[1],13.9 G/DL
same,LEUKOCYTE COUNT,[1],10.93 x10E3/uL
same,LYMPHOCYTE,[1],91%
same,MEAN CORPUSCULAR HEMOGLOBIN,[1],23.73 pg
same,MEAN CORPUSCULAR HEMOGLOBIN CONCENTRATION,[1],37.97 G/DL
same,MEAN CORPUSCULAR VOLUME,[1],62.47 fL
same,MONOCYTE,[1],1.33%
same,NEUTROPHIL,[1],7.67%
same,NUCLEATED RED BLOOD CELLS,[1],0 /100WBC
same,PLATELET COUNT,[1],1169.67 x10E3/uL
same,ALANINE AMINOTRANSFERASE,[1],54.67 u/L
same,ALBUMIN,[1],4.07 G/DL
same,ALKALINE PHOSPHATASE,[1],345.67 u/L
same,ASPARTATE AMINOTRANSFERASE,[1],85.33 u/L
same,BLOOD UREA NITROGEN,[1],17.67 mg/dL
same,CARBON DIOXIDE,[1],33 mmol/L
same,CHLORIDE,[1],101.67 MEQ/L
same,CHOLESTEROL,[1],70.33 mg/dL
same,CREATINE PHOSPHOKINASE,[1],283.33 u/L
same,CREATININE,[1],0.19 mg/dL
same,GLUCOSE,[1],123 mg/dL
same,LACTATE DEHYDROGENASE,[1],105 u/L
same,LIPASE,[1],11.33 u/L
same,PHOSPHORUS,[1],11.23 mg/dL
same,POTASSIUM,[1],6.38 MEQ/L
same,SODIUM,[1],145.93 MEQ/L
same,TOTAL BILIRUBIN,[1],0.17 mg/dL
same,TOTAL PROTEIN,[1],6.07 G/DL
same,URIC ACID,[1],1.13 mg/dL
same,ABSOLUTE BASOPHIL,[2],0 CELLS/uL
same,ABSOLUTE EOSINOPHIL,[2],73 CELLS/uL
same,ABSOLUTE LYMPHOCYTE,[2],6631.33 CELLS/uL
same,ABSOLUTE MONOCYTE,[2],53.67 CELLS/uL
same,ABSOLUTE SEGMENTED NEUTROPHIL,[2],808.67 CELLS/uL
same,BASOPHIL,[2],0%
same,EOSINOPHIL,[2],1.33%
same,ERYTHROCYTE COUNT,[2],5.62 x10E6/uL
same,HEMATOCRIT,[2],34.87%
same,HEMOGLOBIN,[2],13.47 G/DL
same,LEUKOCYTE COUNT,[2],7.57 x10E3/uL
same,LYMPHOCYTE,[2],85.33%
same,MEAN CORPUSCULAR HEMOGLOBIN,[2],23.97 pg
same,MEAN CORPUSCULAR HEMOGLOBIN CONCENTRATION,[2],38.63 G/DL
same,MEAN CORPUSCULAR VOLUME,[2],62.07 fL
same,MONOCYTE,[2],1%
same,NEUTROPHIL,[2],12.33%
same,NUCLEATED RED BLOOD CELLS,[2],0 /100WBC
same,PLATELET COUNT,[2],1290.67 x10E3/uL
same,ALANINE AMINOTRANSFERASE,[2],66 u/L
same,ALBUMIN,[2],4.03 G/DL
same,ALKALINE PHOSPHATASE,[2],327 u/L
same,ASPARTATE AMINOTRANSFERASE,[2],79 u/L
same,BLOOD UREA NITROGEN,[2],14.33 mg/dL
same,CARBON DIOXIDE,[2],29.67 mmol/L
same,CHLORIDE,[2],100.33 MEQ/L
same,CHOLESTEROL,[2],97.33 mg/dL
same,CREATINE PHOSPHOKINASE,[2],248 u/L
same,CREATININE,[2],0.21 mg/dL
same,GLUCOSE,[2],140.67 mg/dL
same,LACTATE DEHYDROGENASE,[2],232.33 u/L
same,LIPASE,[2],10.33 u/L
same,PHOSPHORUS,[2],10.53 mg/dL
same,POTASSIUM,[2],5.08 MEQ/L
same,SODIUM,[2],143.17 MEQ/L
same,TOTAL BILIRUBIN,[2],0.37 mg/dL
same,TOTAL PROTEIN,[2],6.17 G/DL
same,URIC ACID,[2],0.67 mg/dL
same,ABSOLUTE BASOPHIL,[3],0 CELLS/uL
same,ABSOLUTE EOSINOPHIL,[3],121 CELLS/uL
same,ABSOLUTE LYMPHOCYTE,[3],10491.67 CELLS/uL
same,ABSOLUTE MONOCYTE,[3],80.67 CELLS/uL
same,ABSOLUTE SEGMENTED NEUTROPHIL,[3],940 CELLS/uL
same,BASOPHIL,[3],0%
same,EOSINOPHIL,[3],1%
same,ERYTHROCYTE COUNT,[3],5.32 x10E6/uL
same,HEMATOCRIT,[3],33.53%
same,HEMOGLOBIN,[3],13.03 G/DL
same,LEUKOCYTE COUNT,[3],11.63 x10E3/uL
same,LYMPHOCYTE,[3],90.33%
same,MEAN CORPUSCULAR HEMOGLOBIN,[3],24.5 pg
same,MEAN CORPUSCULAR HEMOGLOBIN CONCENTRATION,[3],38.93 G/DL
same,MEAN CORPUSCULAR VOLUME,[3],62.93 fL
same,MONOCYTE,[3],0.67%
same,NEUTROPHIL,[3],8%
same,NUCLEATED RED BLOOD CELLS,[3],0.33 /100WBC
same,PLATELET COUNT,[3],350.67 x10E3/uL
same,ALANINE AMINOTRANSFERASE,[3],64 u/L
same,ALBUMIN,[3],3.8 G/DL
same,ALKALINE PHOSPHATASE,[3],343 u/L
same,ASPARTATE AMINOTRANSFERASE,[3],99.33 u/L
same,BLOOD UREA NITROGEN,[3],18.33 mg/dL
same,CARBON DIOXIDE,[3],30.67 mmol/L
same,CHLORIDE,[3],102 MEQ/L
same,CHOLESTEROL,[3],54.67 mg/dL
same,CREATINE PHOSPHOKINASE,[3],485.67 u/L
same,CREATININE,[3],0.29 mg/dL
same,GLUCOSE,[3],141.33 mg/dL
same,LACTATE DEHYDROGENASE,[3],106.67 u/L
same,LIPASE,[3],9.67 u/L
same,PHOSPHORUS,[3],10.73 mg/dL
same,POTASSIUM,[3],5.43 MEQ/L
same,SODIUM,[3],145.97 MEQ/L
same,TOTAL BILIRUBIN,[3],0.2 mg/dL
same,TOTAL PROTEIN,[3],5.37 G/DL
same,URIC ACID,[3],0.83 mg/dL
